Assay results: patent publication US20130052381A1, “POLYEPOXIDES AND EPOXY RESINS AND METHODS FOR THE MANUFACTURE AND USE THEREOF” (priority 2011, published 2013)

Assays:
[1] = molecular target: T1, recombinant human estradiol receptors (rhER) alpha (α) (Homo sapiens, UniProt P03372); test: competitive radioligand binding assay, rhER alpha; conditions: at as high as […]10^−4 molar concentration
T1 sequence (P03372 1-595): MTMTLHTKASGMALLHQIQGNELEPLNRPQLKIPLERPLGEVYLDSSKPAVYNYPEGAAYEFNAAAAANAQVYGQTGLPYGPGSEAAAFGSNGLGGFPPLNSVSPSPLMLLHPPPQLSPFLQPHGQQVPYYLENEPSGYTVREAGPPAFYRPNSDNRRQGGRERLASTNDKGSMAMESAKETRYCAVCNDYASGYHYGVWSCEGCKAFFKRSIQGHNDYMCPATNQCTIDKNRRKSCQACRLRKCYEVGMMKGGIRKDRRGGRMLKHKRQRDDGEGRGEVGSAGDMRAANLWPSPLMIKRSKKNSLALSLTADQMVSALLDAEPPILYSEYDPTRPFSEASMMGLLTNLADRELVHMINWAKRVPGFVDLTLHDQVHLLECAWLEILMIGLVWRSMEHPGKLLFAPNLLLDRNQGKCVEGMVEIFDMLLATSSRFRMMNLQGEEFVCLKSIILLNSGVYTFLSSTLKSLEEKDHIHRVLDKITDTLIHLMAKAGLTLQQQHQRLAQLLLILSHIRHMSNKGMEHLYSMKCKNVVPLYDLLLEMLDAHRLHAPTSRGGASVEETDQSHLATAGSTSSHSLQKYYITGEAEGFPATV

[2] = molecular target: recombinant human estradiol receptors (rhER) beta 1 (β1) (Homo sapiens, UniProt Q92731); test: competitive radioligand binding assay, rhER beta 1; conditions: at as high as […]10^−4 molar concentration

Row | Molecule | estradiol displacement at the alpha estradiol receptor [1] | estradiol displacement at the beta estradiol receptor [2]
1 | O=C1c2ccccc2C(c2ccc(O)cc2)(c2ccc(O)cc2)N1c1ccccc1 [Example 4, N-Phenyl Phenolphthalein Bisphenol] | no detectible estradiol displacement | no detectible estradiol displacement
2 | Biphenol [Example 7] | no displacement | –
3 | Oc1cccc(O)c1 [Example 5, Resorcinol] | no detectible estradiol displacement | no detectible estradiol displacement
4 | CC(C)(C)c1cc(O)c(C(C)(C)C)cc1O [Example 8, Di t-Butyl Hydroquinone] | no displacement | no displacement
5 | Cc1cc(O)ccc1O [Example 9, Methyl Hydroquinone] | – | no alpha or beta estradiol displacement
